Three compounds from patent publication US20090023804A1, “ELECTROCHEMICAL METHODS FOR REDOX CONTROL TO PRESERVE, STABILIZE AND ACTIVATE COMPOUNDS” (priority 2006, published 2009) can be followed below.

Common to all, as to type: physicochemical
The nature of data set [1]: Reduction potential of model compounds. To be noted: pH 7 Buffer solution versus Normal Hydrogen Electrode (NHE). On the procedure:
The redox potential of the solution is measured by open cell potential. […] Cyclic voltammetry can be used to identify the various oxidation states and redox potentials for future manipulation of redox state. Additionally, FIG. 5 in the present application provides a working example of this assay by depicting the cyclic voltammetry trace for hypericin. As shown, there are multiple peaks in the range of 0-2 volts, that are the result of the different redox states of hypericin. This is manipulated according to the preferred or desired redox state to be achieved.
Once the redox potential of the preparation is measured, the redox state may be adjusted to the preferred or desired condition at any stage as previously described.
The multiple oxidation states of the molecule of interest can be determined electrochemically by cyclic voltammetry. The first phase involves applying an excessive positive potential (oxidizing potential) and oxidizing all the species present to one form. Then the applied voltage is stepped down in increments while monitoring current. When the mid-point redox potential of a reaction is approached, molecules begin to be reduced, causing current through the circuit. After returning all molecules to the reduced form, the voltage is increased and the redox potentials of the reaction(s) are recorded. […]

Data set [2] is described as follows: Electrochemical oxidation of EGCG solutions at pH 6.0, followed by UV-visible absorbance and open circuit potential. From the text: An electrochemical cell was fabricated using a fine porosity glass frit in 1″ diameter glass tubing. The electrochemical cell houses the counter electrode and keeps the Ag/AgCl reference electrode and platinum working electrode separate from the counter electrode. This addition to the system allowed the preparation of bulk solution. The working electrode and reference electrode compartment was continuously stirred using a small stir bar and a magnetic stirrer to minimize gradient effects at the working electrode.
The EGCG solutions were oxidized using a positive potential to a visual end point. UV-visible spectral data were collected during these experiments, including the absorbance at 270 nm and 320 nm, corresponding to the phenol and quinone forms of EGCG, respectively. In addition, the open cell potential was recorded as experiments progressed. The active redox potentials and experimental endpoints were determined based on current and visual color changes.
Due to solution evaporation over time, the ratio of absorbance at 320 nm divided by the absorbance at 270 nm was determined in order to account for overall absorption increases. […] In addition, the visual change in solution color from clear to yellow and pink was also monitored as an indicator of degree of oxidation.
Stirred EGCG solutions in 0.1 M phosphate buffer with 0.1 M KCl at pH 6.0 were monitored. […]

A short description of data set [3]: Stability of electrochemically oxidized EGCG solutions after pH modification (UV-visible spectra). From the text: Solutions were pH modified following electrochemical oxidation to observe stability. […] These samples were open to air, and no other precautions were taken to prevent oxidation by atmospheric oxygen.

Regarding `O=C(O)/C=C/c1ccc(O)c(O)c1` [Caffeic Acid], the “Reduction Potential” value in data set [1] worked out at 120 mV.
As for `O=C(O[C@@H]1Cc2c(O)cc(O)cc2O[C@@H]1c1cc(O)c(O)c(O)c1)c1cc(O)c(O)c(O)c1` [Epigallocatechin gallate, epigallocatechin gallate], the “change in absorbance at 270 and 320 nm” value in data set [2] (after seven hours, 800 mV solution and control solution) is recorded as “no change”. Moreover, in data set [2] (solutions left with no current after 68 h, until 120 h), the “stability of electrochemically-induced changes (320 nm absorbance over time)” value is on record as “stable for over two days”. Also, the “stability of pH-modified sample after electrochemical oxidation” value in data set [3] (EGCG solution pH 6.26, 1500 mV for 11.4 hours, then pH 8.43, open to air, after 7 days) is “relatively stable after 7 days”. Also, the “stability of pH-modified samples after electrochemical oxidation” value in data set [3] (EGCG solution pH 6.26, 1500 mV for 11.4 hours, then pH modified, open to air, after one day) is recorded as “stable after one day”. In addition, the “oxidation of control samples” value in data set [3] (control samples at pH 6.26, no potential) is “did not oxidize”.
Turning to `O=c1c(O)c(-c2ccc(O)c(O)c2)oc2cc(O)cc(O)c12` [Quercitin], the “Reduction Potential” value in data set [1] stood at 120 mV.
